Data on 30 compounds can be found in patent US20250230226A1, “PLXDC1/PLXDC2 ACTIVATORS AND THEIR USE IN THE TREATMENT OF BLOOD VESSEL DISORDERS” (THE REGENTS OF THE UNIVERSITY OF CALIFORNIA, priority 2019, published 2025).

This assay concerns LL/2 lung cancer tumor endothelial cells. Put plainly: Lung LL2 ex vivo model of tumor angiogenesis. The format is cell-based, mouse. The following applies: for 48 hrs (morphology observations): LL/2 tumor endothelial cells; for Cell death: drug treatment for two days, ratio of red area to total endothelial cell area. The method, then: An ex vivo tumor angiogenesis model was developed to test the efficacy of anti-cancer candidate agents. The following protocol describes the Ex Vivo Tumor Angiogenesis Model.
• 1. The day before the experiment, all necessary tools were sprayed with 70% ethanol and sterilized under UV light overnight, including blade, dissecting and micro-dissecting scissors and […]. 24-well dishes were placed at 4° C. to pre-chill plates and Matrigel was thawed, 24 hours before tumor dissection. • 2. 70% ethanol was sprayed on working bench. Two sterile petri dishes were prepared with 10 ml sterile PBS. The following steps 3 and 4 are necessary for mouse tumor models. For fresh human tumor, steps 3 and 4 are skipped. • 3. The tumor-bearing mice were euthanized. 70% ethanol was sprayed on the mouse and the tumor was removed using sterilized dissecting tools (avoid the fur). The tumor was rinsed in petri dish with sterile PBS to remove ethanol and fur. The tumor was transferred to a new petri dish with PBS for dissection. The dish is placed on ice. • 4. Pre-chilled sterile pipet tips were used to seed regular Matrigel in 24 well plates on ice. Matrigel (30 μl) was dropped in the middle of each well without touching the edge of the well (avoid introducing bubbles if possible). • 5. The tumor was cut in halves using the sterile blade. Healthy tumor tissue that is not necrotic and is within the tumor capsule was identified and isolated. The healthy tumor tissue was cut into small pieces. For instance, a suitable size for the tumor tissue is 0.5 mm (H)×0.5 mm (L)×0.3 mm (D) with a total volume of 0.075 mm^3. • 6. Each tumor piece was gently transferred and embedded in the Matrigel drop in the 24-well plate. The embedded piece was placed in the bottom and middle of each Matrigel drop. The plate was kept on ice all the time. • 7. After seeding the tumor pieces, plates were incubated in a 37° C. cell culture incubator without medium for 10 minutes in order for the Matrigel to solidify. • 8. Endothelial Growth Medium (0.5 ml) was added to each well and incubated at 37° C. with 5% CO2. Treatment was not added until the new endothelial cells was grown out of the tumor or were larger than 3 mm in diameter. This usually takes 4 days for the LL2 Lewis lung cancer model and 7 days for the CT26 colon cancer model. For human tumor models, the growth time is typically 2-3 weeks, depending on the tumor type. Media was changed every 4 days during prolonged culture. Typically, when the tumor tissue grows to 2 mm in diameter, it was good for drug testing. A size of about 3 mm in diameter can make visualization easier. • 9. When the assay was ready to be analyzed for cell death (e.g., 48 hours after drug addition), the dye mixture was prepared by mixing 6 μl of green dye to stain live cells (5 mg/ml Fluorescein diacetate or FDA in DMSO) with 30 μl of red dye (2.5 mg/ml Propidium iodide or PI in PBS) to stain dead cells in an Eppendorf tube. The FDA dye needs to be stored frozen in a −20° C. freezer because it has a labile ester bond. • 10. 1 μl of the dye mixture was added to each well of the 24-well dish. It is usually preferred to do one 24-well dish at a time given the amount of time needed to take pictures (the green dye is not as stable in the cells in the long term). • 11. The dish was gently rocked a few times to mix the dye with the media in the wells and incubate the dish at 37° C. for 10 min (too long incubation can make the green signal too intense). • 12. Each well was washed with 0.5 ml of sterile PBS and then 0.5 ml of phenol red free SFM was added to each well. Alternatively 0.5 ml of regular Endothelial Cell Growth Media can be added to each well if this well needs to be continuously maintained after the experiment. • 13. An inverted microscope using the 2× objective lens was used to observe morphological changes in the experimental wells. • 14. […]

The mark [1] stands for this setting: Mus musculus, Endothelial cell, 48 h, read-out: Cell death.

As for `CCCCCCCCCCOc1ccc(S(=O)(=O)c2cnc3ccc([S+](C)[O-])cc3c2N2CCN(C3CCN(CC)CC3)CC2)cc1` (stereo not shown) [Compound 283], the “48 hrs (morphology observations)” value (10 μm) worked out at 0. The cytotoxicity at 10 µM under setting [1] was determined as 5%.

Consider `CCCCCCCOc1ccc(S(=O)(=O)c2cnc3ccc([S+](C)[O-])cc3c2N2CCN(CCN3CCCCC3)CC2)cc1` (stereo not shown) [Compound 282], for which, for the setting “10 μm”, the “48 hrs (morphology observations)” value turned out to be 0 and the Cell death was 10%.

For `CCCCCCCCCCOc1ccc(S(=O)(=O)c2cnc3ccc([S+](C)[O-])cc3c2N2CCC(N3CCC(N4CCCN(C)CC4)CC3)CC2)cc1` (stereo not shown) [Compound 287], where the note is “20 μm, (24 hrs)”, the “Cell death, read at 24 hrs” value amounted to 40% and the “Endothelial cell morphology score at 24 hrs” value was “* (50% or less of cells vesicularize in cell shape)”.

Take `CCCCCCCCCCOc1ccc(S(=O)(=O)c2cnc3ccc([S+](C)[O-])cc3c2N2CCC(N3CCC(N4CCCC(O)C4)CC3)CC2)cc1` (stereo not shown) [Compound 288]: where the note is “10 μm”, the “48 hrs (morphology observations)” value is recorded as “*** (more than 50% but less than 100% of endothelial cells vesicularize in cell shape)” and the Cell death is 50%.

For `CNC(=O)c1ccc2ncc(S(=O)(=O)c3ccc(OC)cc3)c(N3CCC(N4CCCC4CO)CC3)c2c1` (stereo not shown) [Compound 336], where the note is “40 μm”, the “48 hrs (morphology observations)” value stood at 0 and the Cell death was 0%.

For `CCCCCCCCCCOc1ccc(S(=O)(=O)c2cnc3ccc([S+](C)[O-])cc3c2N2CCC(N3CCC(N4CCCCC4)CC3)CC2)cc1` (stereo not shown) [Compound 269], where the note is “20 μm”, the “48 hrs (morphology observations)” value is “**** (100% of endothelial cells vesicularize in cell shape and look flattened in morphology (indicating disintegration of the cell body))”; the Cell death was 100%.

`CCc1ccc(S(=O)(=O)c2cnc3ccc(OC(F)(F)F)cc3c2NN2CCCCC2)cc1` [Compound 105]: where the note is “20 μm”, the “48 hrs (morphology observations)” value worked out at 0 and the Cell death was 0%.

Turning to `CCCCOc1ccc(S(=O)(=O)c2cnc3ccc(C(=O)OCC)cc3c2-n2cnnn2)cc1` [Compound 186], where the note is “10 μm”, the “48 hrs (morphology observations)” value is “**** (100% of endothelial cells vesicularize in cell shape and look flattened in morphology (indicating disintegration of the cell body))”; the Cell death was determined as 90%.

In the case of `CCCCOc1ccc(S(=O)(=O)c2cnc3ccc(S(C)(=O)=O)cc3c2N2CCC(N3CCCCC3)CC2)cc1` [Compound 169], for the setting “20 μm”, the “48 hrs (morphology observations)” value came out at 0 and the Cell death worked out at 40%.

In the case of `COc1ccc(S(=O)(=O)c2cnc3ccc(OC(F)(F)F)cc3c2NCCO)cc1OC` [Compound 73], the Cell death (40 μm) is reported as 10%.

As for `CCCCOc1ccc(S(=O)(=O)c2cnc3ccc(SC)cc3c2N2CCC(N3CCC(O)(c4ccccc4)CC3)CC2)cc1` [Compound 232], under “40 μm”, the “48 hrs (morphology observations)” value was 0 and the Cell death came to 10%.

On to `CCCCOc1ccc(S(=O)(=O)c2cnc3ccc(SC)cc3c2N2CCCN(CC3(O)CCCC3)CC2)cc1` [Compound 354], for which the “48 hrs (morphology observations)” value (40 μm) was found to be 0. Besides, the cytotoxicity at 40 µM under setting [1] was determined as 0%.

`COc1ccc(S(=O)(=O)c2cnc3cc(OC)c(OC)cc3c2N2CCCN(CC3(O)CCCC3)CC2)cc1` [Compound 325]: under “40 μm”, the “48 hrs (morphology observations)” value was “* (50% or less of cells vesicularize in cell shape)” and the Cell death worked out at 30%.

Consider `CCCCOc1ccc(S(=O)(=O)c2cnc3ccc(C(=O)N(CC)CC)cc3c2N2CCCN(C)CC2)cc1` [Compound 199], for which, under “40 μm”, the “48 hrs (morphology observations)” value came out at 0 and the Cell death is listed as 30%.

With `CCCCCCCOc1ccc(S(=O)(=O)c2cnc3ccc(SC)cc3c2N2CCC(N3CCC(O)(c4ccccc4)CC3)CC2)cc1` [Compound 262], under “10 μm”, the “48 hrs (morphology observations)” value is recorded as 0 and the Cell death worked out at 20%.

As for `COc1ccc(S(=O)(=O)c2cnc3cc(OC)c(OC)cc3c2N2CCC(c3ccc(CN4CCCC4)cc3)CC2)cc1` [Compound 312], for the setting “40 μm”, the “48 hrs (morphology observations)” value was “**** (100% of endothelial cells vesicularize in cell shape and look flattened in morphology (indicating disintegration of the cell body))”; the Cell death came to 100%.

As for `CCOC(=O)c1ccc2ncc(S(=O)(=O)c3ccc(OC)cc3)c(-n3cncn3)c2c1` [Compound 183], for the setting “10 μm”, the “48 hrs (morphology observations)” value was “**** (100% of endothelial cells vesicularize in cell shape and look flattened in morphology (indicating disintegration of the cell body))”; the Cell death was determined as 100%.

For the compound `COc1ccc(N2CCN(c3c(S(=O)(=O)c4ccc(OC)cc4)cnc4cc(OC)c(OC)cc34)CC2=O)cc1` [Compound 318], for the setting “40 μm”, the “48 hrs (morphology observations)” value amounted to 0 and the Cell death was 30%.

As to `CCCCCCCOc1ccc(S(=O)(=O)c2cnc3ccc([S+](C)[O-])cc3c2N2CCC(N3CCC(O)(c4ccccc4)CC3)CC2)cc1` (stereo not shown) [Compound 263], the “48 hrs (morphology observations)” value (10 μm) was “**** (100% of endothelial cells vesicularize in cell shape and look flattened in morphology (indicating disintegration of the cell body))”.

`CCOC(=O)c1ccc2ncc(S(=O)(=O)c3ccc(OC)cc3)c(N3CCC(N4CCC(CO)CC4)CC3)c2c1` [Compound 175]: under “40 μm”, the “48 hrs (morphology observations)” value turned out to be 0 and the Cell death is recorded as 30%.

For `CCCCOc1ccc(S(=O)(=O)c2cnc3ccc(C(=O)OCC)cc3c2N2CCC(N3CCC(CO)CC3)CC2)cc1` [Compound 178], where the note is “40 μm”, the “48 hrs (morphology observations)” value was “**** (100% of endothelial cells vesicularize in cell shape and look flattened in morphology (indicating disintegration of the cell body))”; the Cell death came to 100%.

Consider `CCOC(=O)c1ccc2ncc(S(=O)(=O)c3ccc(OC)cc3)c(-n3ccnc3)c2c1` [Compound 141], for which, where the note is “20 μm”, the “48 hrs (morphology observations)” value is “**** (100% of endothelial cells vesicularize in cell shape and look flattened in morphology (indicating disintegration of the cell body))”; the Cell death worked out at 90%.

`CNC(=O)c1ccc(C2CCN(c3c(S(=O)(=O)c4ccc(OC)cc4)cnc4cc(OC)c(OC)cc34)CC2)cc1` [Compound 310]: under “40 μm”, the “48 hrs (morphology observations)” value worked out at 0 and the Cell death was 10%.

Turning to `CCCCCCCOc1ccc(S(=O)(=O)c2cnc3ccc(SC)cc3c2N2CCN(C3CCN(Cc4ccccc4)C3)CC2)cc1` (stereo not shown) [Compound 274], where the note is “20 μm”, the “48 hrs (morphology observations)” value turned out to be 0 and the Cell death was 10%.

With `CCCCCCCCCCOc1ccc(S(=O)(=O)c2cnc3ccc([S+](C)[O-])cc3c2N2CCCN(CCN3CCCCC3)CC2)cc1` (stereo not shown) [Compound 266], under “10 μm”, the “48 hrs (morphology observations)” value amounted to 0 and the Cell death is 5%.

`COc1ccc(S(=O)(=O)c2cnc3cc(OC)c(OC)cc3c2N2CCC3C(COCCN3CC(C)C)C2)cc1` (stereo not shown) [Compound 324]: under “40 μm”, the “48 hrs (morphology observations)” value is on record as 0 and the Cell death is listed as 60%.

In the case of `CCCCOc1ccc(S(=O)(=O)c2cnc3ccc([S+](C)[O-])cc3c2N2CCC(N3CCN(c4ccc(F)cc4)CC3)CC2)cc1` (stereo not shown) [Compound 239], under “40 μm”, the “48 hrs (morphology observations)” value is recorded as 0 and the Cell death was determined as 40%.

With `CCCCOc1ccc(S(=O)(=O)c2cnc3ccc(OC(F)(F)F)cc3c2N2CCS(=O)(=O)CC2)cc1` [Compound 198], for the setting “40 μm”, the “48 hrs (morphology observations)” value is 0 and the Cell death is reported as 30%.

As for `CCCCOc1ccc(S(=O)(=O)c2cnc3ccc(SC)cc3c2N2CCC(N3CCN(CCO)CC3)CC2)cc1` [Compound 230], the “48 hrs (morphology observations)” value (40 μm) is on record as “*** (more than 50% but less than 100% of endothelial cells vesicularize in cell shape)”. Under setting [1], the cytotoxicity at 40 µM is 100%.

Regarding `CCCCOc1ccc(S(=O)(=O)c2cnc3ccc([S+](C)[O-])cc3c2N2CCC(N3CCSCC3)CC2)cc1` (stereo not shown) [Compound 245], where the note is “40 μm”, the “48 hrs (morphology observations)” value amounted to 0 and the Cell death worked out at 40%.
